From the supplement of paper PMC8741786
Values after ≈ are worked out from the molar mass of the structure shown.

Tested on: Neisseria subflava/flavescens/perflava
Test: minimum inhibitory concentration (ETEST)
Details: population: general population, antibiotic use in previous 6 months: No
Method: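 Oropharyngeal Neisseria isolates from MSM and employees in Belgium were identified to species by MALDI-TOF MS. MICs of azithromycin, ceftriaxone and ciprofloxacin were determined by ETEST on GC agar after 24 h at 36.5 °C and 5-7% CO2, in mg/L. Values beyond the strip range are reported as >256 (azithromycin) or <0.016 (ceftriaxone); isolates that did not grow are NA.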

CO/N=C(\C(=O)N[C@@H]1C(=O)N2C(C(=O)O)=C(CSc3nc(=O)c(O)nn3C)CS[C@H]12)c1csc(N)n1 [ceftriaxone]
Details | minimum inhibitory concentration [µg/mL]
isolate id (sample isolate): Co000770_6 | 0.032 (≈ 0.0577 µM)
isolate id (sample isolate): Co000771_2 | 0.064 (≈ 0.115 µM)
isolate id (sample isolate): Co000771_3 | 0.016 (≈ 0.0289 µM)
isolate id (sample isolate): Co000771_5 | 0.064 (≈ 0.115 µM)
isolate id (sample isolate): Co000772_1 | 0.064 (≈ 0.115 µM)
isolate id (sample isolate): Co000772_2 | 0.064 (≈ 0.115 µM)
isolate id (sample isolate): Co000772_4 | 0.023 (≈ 0.0415 µM)
isolate id (sample isolate): Co000772_5 | 0.023 (≈ 0.0415 µM)
isolate id (sample isolate): Co000772_6 | 0.016 (≈ 0.0289 µM)
isolate id (sample isolate): Co000773_1 | 0.064 (≈ 0.115 µM)
isolate id (sample isolate): Co000773_2 | 0.064 (≈ 0.115 µM)
isolate id (sample isolate): Co000774_2 | 0.016 (≈ 0.0289 µM)
isolate id (sample isolate): Co000775_1 | 0.032 (≈ 0.0577 µM)
isolate id (sample isolate): Co000775_2 | 0.047 (≈ 0.0847 µM)
isolate id (sample isolate): Co000775_3 | 0.094 (≈ 0.169 µM)
isolate id (sample isolate): Co000776_2 | 0.125 (≈ 0.225 µM)
isolate id (sample isolate): Co000776_3 | 0.125 (≈ 0.225 µM)
isolate id (sample isolate): Co000777_1 | 0.064 (≈ 0.115 µM)
isolate id (sample isolate): Co000777_2 | 0.047 (≈ 0.0847 µM)
isolate id (sample isolate): Co000777_4 | 0.047 (≈ 0.0847 µM)
isolate id (sample isolate): Co000778_1 | 0.094 (≈ 0.169 µM)
isolate id (sample isolate): Co000778_2 | 0.047 (≈ 0.0847 µM)
isolate id (sample isolate): Co000778_3 | 0.094 (≈ 0.169 µM)
isolate id (sample isolate): Co000780_4 | 0.125 (≈ 0.225 µM)
isolate id (sample isolate): Co000781_1 | 0.094 (≈ 0.169 µM)
isolate id (sample isolate): Co000781_3 | 0.064 (≈ 0.115 µM)
isolate id (sample isolate): Co000781_4 | 0.094 (≈ 0.169 µM)
isolate id (sample isolate): Co000782_2 | 0.047 (≈ 0.0847 µM)
isolate id (sample isolate): Co000782_3 | 0.25 (≈ 0.451 µM)
isolate id (sample isolate): Co000782_4 | 0.047 (≈ 0.0847 µM)
isolate id (sample isolate): Co000783_1 | 0.125 (≈ 0.225 µM)
isolate id (sample isolate): Co000783_2 | 0.032 (≈ 0.0577 µM)
isolate id (sample isolate): Co000783_5 | 0.032 (≈ 0.0577 µM)
isolate id (sample isolate): Co000784_1 | 0.023 (≈ 0.0415 µM)
isolate id (sample isolate): Co000784_2 | 0.047 (≈ 0.0847 µM)
isolate id (sample isolate): Co000784_5 | 0.032 (≈ 0.0577 µM)
isolate id (sample isolate): Co000785_1 | 0.047 (≈ 0.0847 µM)
isolate id (sample isolate): Co000785_2 | 0.047 (≈ 0.0847 µM)
isolate id (sample isolate): Co000785_3 | 0.064 (≈ 0.115 µM)
isolate id (sample isolate): Co000785_4 | 0.064 (≈ 0.115 µM)
isolate id (sample isolate): Co000786_1 | 0.032 (≈ 0.0577 µM)
isolate id (sample isolate): Co000786_2 | 0.064 (≈ 0.115 µM)
isolate id (sample isolate): Co000787_1 | 0.032 (≈ 0.0577 µM)
isolate id (sample isolate): Co000787_2 | 0.023 (≈ 0.0415 µM)
isolate id (sample isolate): Co000787_4 | 0.016 (≈ 0.0289 µM)
isolate id (sample isolate): Co000788_2 | 0.047 (≈ 0.0847 µM)
isolate id (sample isolate): Co000788_3 | 0.047 (≈ 0.0847 µM)
isolate id (sample isolate): Co000788_5 | 0.016 (≈ 0.0289 µM)
isolate id (sample isolate): Co000789_1 | 0.032 (≈ 0.0577 µM)
isolate id (sample isolate): Co000790_2 | 0.032 (≈ 0.0577 µM)
isolate id (sample isolate): Co000790_4 | 0.047 (≈ 0.0847 µM)
